Calls of active or inactive are those of the source.
Legend:
[1] = NIH3T3 cell viability loss – ATP luminescence, mouse fibroblasts, counter-screen, dose response (AID 2010); type: functional, cell-based;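 note: cells exposed to compound for about 90 hours before reading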
[2] = tested on: Jurkat; assay: blockers of NF-kB activation in T cells – Jurkat, luciferase reporter, luminescence, B- and T-cell, dose response (AID 489004); type: functional, cell-based; details: Homo sapiens;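 note: NF-kB luciferase reporter Jurkat cells stimulated with PMA plus ionomycin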
[3] = Trypanosoma cruzi growth suppression in host cells – NIH3T3 host cells, beta-gal luminescence, confirmation (AID 2044); type: functional, cell-based;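 note: intracellular parasites grown in NIH/3T3 mouse fibroblasts as host cells; luminescent beta-galactosidase reporter signal from transgenic T. cruzi replicating inside host cells; inhibitors lower the luminescence signal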
[4] = HEK-293T viability loss, compound-treated – cell-based, uHTS hits, cytotoxicity control for B/T-cell NF-kB inhibitor project, dose response (AID 489019); type: functional;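 note: IC50 reflects cytotoxicity as loss of cell viability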
[5] = fluconazole-exposed Candida albicans growth modulators – fluorescence, retest, confirmation (AID 2467); type: functional, cell-based
[6] = NIH-3T3 fibroblast cytotoxicity, dose response, cytotoxicity control, cell-based, fluorescence, Alamar Blue, secondary assay (AID 2327); type: functional;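 note: NIH-3T3 mouse fibroblasts cultured with fluconazole at 8 µg/mL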
[7] = target: CAAX prenyl protease 1 (Saccharomyces cerevisiae S288c, UniProt P47154); assay: yeast CAAX protease Ste24 inhibition – biochemical, S. cerevisiae, plate reader, cherry-pick, dose response (AID 488815)
Sequence of CAAX prenyl protease 1 (P47154 whole entry): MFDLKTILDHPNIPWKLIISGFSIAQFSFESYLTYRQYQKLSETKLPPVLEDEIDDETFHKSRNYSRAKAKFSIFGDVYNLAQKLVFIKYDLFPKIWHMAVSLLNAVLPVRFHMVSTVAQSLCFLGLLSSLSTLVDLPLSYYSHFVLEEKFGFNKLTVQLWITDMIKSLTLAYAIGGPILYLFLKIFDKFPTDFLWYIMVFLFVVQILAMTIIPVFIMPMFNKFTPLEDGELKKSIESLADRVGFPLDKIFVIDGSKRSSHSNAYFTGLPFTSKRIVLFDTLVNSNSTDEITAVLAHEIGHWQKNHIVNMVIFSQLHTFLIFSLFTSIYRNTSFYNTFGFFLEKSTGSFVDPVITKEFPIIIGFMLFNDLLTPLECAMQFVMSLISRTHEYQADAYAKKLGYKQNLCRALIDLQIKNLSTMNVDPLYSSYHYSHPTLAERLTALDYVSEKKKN

[8] = target: Trypsin (Sus scrofa, UniProt P00761); assay: trypsin protease activity blockade – biochemical, quenched peptide fluorescence, cherry-pick, selectivity assay for Rce1 protease inhibitor project, dose response (AID 488789)
Sequence of Trypsin (P00761 whole entry): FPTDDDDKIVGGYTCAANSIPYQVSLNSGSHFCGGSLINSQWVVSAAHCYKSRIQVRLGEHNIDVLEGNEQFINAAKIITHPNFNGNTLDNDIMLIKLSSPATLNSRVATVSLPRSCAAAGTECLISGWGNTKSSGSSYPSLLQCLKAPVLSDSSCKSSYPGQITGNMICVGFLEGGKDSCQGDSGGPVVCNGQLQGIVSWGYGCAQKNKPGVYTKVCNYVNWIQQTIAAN

[9] = target: T1, CAAX prenyl protease 2 (Homo sapiens, UniProt Q9Y256); assay: inhibition of Ras-converting CAAX protease Rce1 – biochemical, yeast membranes, quenched-peptide fluorescence, cherry-pick, dose response (AID 588849)
T1 sequence (Q9Y256 whole entry): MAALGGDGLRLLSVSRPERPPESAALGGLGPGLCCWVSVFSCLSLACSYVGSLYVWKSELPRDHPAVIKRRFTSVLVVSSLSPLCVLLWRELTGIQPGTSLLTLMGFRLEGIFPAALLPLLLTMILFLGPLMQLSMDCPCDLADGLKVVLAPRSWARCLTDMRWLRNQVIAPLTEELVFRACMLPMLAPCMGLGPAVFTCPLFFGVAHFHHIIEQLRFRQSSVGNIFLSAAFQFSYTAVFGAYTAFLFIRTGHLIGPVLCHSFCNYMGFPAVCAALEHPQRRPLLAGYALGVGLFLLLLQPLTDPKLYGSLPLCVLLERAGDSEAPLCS

[10] = target: T2, Ubiquitin-conjugating enzyme E2 N (Homo sapiens, UniProt P61088); type: functional;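 note: Dose-response confirmation in a TR-FRET assay detecting UBC13-driven polyubiquitin chain formation, inhibition measured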
T2 sequence (P61088 whole entry): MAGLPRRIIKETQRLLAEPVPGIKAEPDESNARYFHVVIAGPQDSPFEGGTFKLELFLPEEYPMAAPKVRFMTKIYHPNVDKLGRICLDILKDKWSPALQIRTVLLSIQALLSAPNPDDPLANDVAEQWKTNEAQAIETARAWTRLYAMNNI

[11] = target: T3, Protein RecA (Mycobacterium tuberculosis, UniProt P9WHJ3); assay: Fluorescence Cell-Free Homogeneous Dose Retest to Identify Inhibitors of RecA-Intein Splicing Activity. [Related pubchem assays (depositor defined):AID2097, AID2223, AID489010, AID492950]; type: functional
T3 sequence (P9WHJ3 whole entry): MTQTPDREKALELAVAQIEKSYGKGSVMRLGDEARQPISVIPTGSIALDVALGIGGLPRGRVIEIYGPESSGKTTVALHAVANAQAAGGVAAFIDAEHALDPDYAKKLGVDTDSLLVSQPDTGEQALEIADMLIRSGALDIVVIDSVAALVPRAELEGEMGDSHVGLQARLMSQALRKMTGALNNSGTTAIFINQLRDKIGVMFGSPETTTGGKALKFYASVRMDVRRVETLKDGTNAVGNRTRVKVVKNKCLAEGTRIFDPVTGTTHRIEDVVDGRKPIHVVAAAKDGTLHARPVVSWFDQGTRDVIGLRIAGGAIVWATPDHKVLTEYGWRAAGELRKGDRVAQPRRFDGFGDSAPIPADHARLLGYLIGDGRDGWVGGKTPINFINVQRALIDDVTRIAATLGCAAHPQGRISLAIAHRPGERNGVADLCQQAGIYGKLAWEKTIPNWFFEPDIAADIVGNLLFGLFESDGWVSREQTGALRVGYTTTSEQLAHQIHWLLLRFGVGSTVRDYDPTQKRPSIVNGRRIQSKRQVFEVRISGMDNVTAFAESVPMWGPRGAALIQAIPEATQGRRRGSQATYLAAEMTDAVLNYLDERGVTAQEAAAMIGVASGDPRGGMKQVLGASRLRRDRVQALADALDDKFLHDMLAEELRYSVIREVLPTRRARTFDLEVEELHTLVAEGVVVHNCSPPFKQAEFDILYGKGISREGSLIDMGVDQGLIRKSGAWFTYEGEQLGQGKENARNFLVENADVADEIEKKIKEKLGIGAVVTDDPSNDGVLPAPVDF

[12] = target: T4, Replicative DNA helicase DnaB (Mycobacterium tuberculosis, UniProt P9WMR3); assay: DnaB intein splicing inhibitors, dose response, biochemical, cell-free fluorescence (AID 449749); type: functional
T4 sequence (P9WMR3 whole entry): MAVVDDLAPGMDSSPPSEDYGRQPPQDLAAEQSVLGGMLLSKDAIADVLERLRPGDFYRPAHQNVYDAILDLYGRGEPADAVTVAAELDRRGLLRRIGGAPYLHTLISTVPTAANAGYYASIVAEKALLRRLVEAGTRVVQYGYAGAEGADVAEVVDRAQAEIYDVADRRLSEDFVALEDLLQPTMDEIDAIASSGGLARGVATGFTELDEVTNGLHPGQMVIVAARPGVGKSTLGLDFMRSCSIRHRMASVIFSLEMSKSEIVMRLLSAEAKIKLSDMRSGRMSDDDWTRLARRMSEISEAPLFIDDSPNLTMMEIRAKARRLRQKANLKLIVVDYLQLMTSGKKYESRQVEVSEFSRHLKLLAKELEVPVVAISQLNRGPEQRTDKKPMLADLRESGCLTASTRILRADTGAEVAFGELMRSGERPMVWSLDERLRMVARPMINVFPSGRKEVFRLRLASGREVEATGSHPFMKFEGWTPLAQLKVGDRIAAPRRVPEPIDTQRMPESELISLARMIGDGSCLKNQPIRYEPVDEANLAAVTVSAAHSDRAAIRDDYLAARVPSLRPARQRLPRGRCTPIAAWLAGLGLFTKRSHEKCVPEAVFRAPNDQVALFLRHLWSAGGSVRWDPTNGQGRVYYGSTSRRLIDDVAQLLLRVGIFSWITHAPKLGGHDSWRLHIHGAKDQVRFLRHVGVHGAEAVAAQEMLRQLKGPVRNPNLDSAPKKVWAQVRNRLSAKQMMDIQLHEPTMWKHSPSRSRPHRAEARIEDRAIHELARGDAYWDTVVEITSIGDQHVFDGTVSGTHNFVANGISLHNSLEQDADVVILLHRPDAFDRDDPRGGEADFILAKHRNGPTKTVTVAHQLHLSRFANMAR

[13] = Luminescence Cell-Based Dose Retest to Confirm Inhibitors of Cancer Stem Cells. [Related pubchem assays (depositor defined):AID2717, AID2721]; type: functional; details: Homo sapiens
[14] = tested on: HeLa; assay: ATP-based viability loss in HeLa cells – cell-based, CellTiter-Glo luminescence, cherry-pick samples, cytotoxicity control for MITF activator project, dose response (AID 540259); type: functional; details: Homo sapiens

## CN(C)c1ccc(-c2n(C)c3ccccc3[n+]2C)cc1
[1]
  EC50: 18.1 µM (active)
[2]
  IC50: > 80 µM (inactive)
[3]
  EC50: 582 nM (active)
[4]
  IC50: > 80 µM (inactive)
[5]
  EC50: 2.18 µM (active)
[6]
  EC50: > 150 µM (inactive)

## CCc1ccc(NC(=O)c2cnc(N3CCN(c4ccccn4)CC3)c3ccccc23)cc1
[1]
  EC50: > 30 µM (not active)
[3]
  EC50: 3140 nM (active)
[7]
  AC50: 9.95 µM (active)
[8]
  AC50: 87.7 µM (active)
[9]
  AC50: 29.7 µM (active)

## CCN(Cc1ccccc1)S(=O)(=O)c1ccc(C(=O)N(CCCN(C)C)c2nc3cc(C)cc(C)c3s2)cc1
[10]
  IC50: > 20 µM (inactive)
[11]
  EC50: 17.7 µM (active)
[7]
  AC50: 17 µM (active)
[12]
  AC50: 7.04 µM (active)
[13]
  AC50: 4.44 µM (active)

## CCn1c(C)nc2cc(C(=O)N/N=C(\C)c3ccccc3O)ccc21
[14]
  AC50: 126 µM (active)

Source: ChEMBL document CHEMBL1201862, “PubChem BioAssay data set” (2004)
